Source: patent US8435744B2 (priority 2005, dated 2013)
Where two headings read alike, the source gives them in different places.

Experiments:
[1] = target: PrP^Sc content in the cells (Mus musculus, UniProt P04925); details: read-out: IC50 (concentration for which 50% of the PrP^Sc content in the cells is inhibited); cited from earlier work
[2] = target: PrP^Sc from infected N2a58/22L cells (Mus musculus, UniProt P04925); format: cell-based, murine
[3] = target: PrP^C from uninfected N2a58 cells (Mus musculus, UniProt P04925); format: cell-based, murine; details: uninfected cells, 1 to 10 μM, FIG. 3
[4] = prolonged incubation up to 14 days, 5 and 20 μM, FIG. 4

PrP^Sc from infected N2a58/22L cells, sequence (P04925 23-230 limits assumed): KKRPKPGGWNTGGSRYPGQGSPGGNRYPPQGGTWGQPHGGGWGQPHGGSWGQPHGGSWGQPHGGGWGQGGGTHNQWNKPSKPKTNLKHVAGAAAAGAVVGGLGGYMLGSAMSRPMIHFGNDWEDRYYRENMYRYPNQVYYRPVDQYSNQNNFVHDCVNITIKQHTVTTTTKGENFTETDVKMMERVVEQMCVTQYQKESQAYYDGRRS
PrP^Sc content in the cells, sequence (P04925 23-230 limits assumed): as above
PrP^C from uninfected N2a58 cells, sequence (P04925 23-230 limits assumed): as above

In the case of `N#Cc1c(N)nc(Sc2ccccc2N)c(C#N)c1-c1ccco1` [2-amino-6-[(2-aminophenyl)thio]-4-(2-furyl)pyridine-3,5-dicarbonitrile], the IC50 [1] is given as about 15 µM.

In the case of `CSc1nccc(-c2ccc(Br)s2)n1` [compound A, 4-(5-bromo-2-thienyl)-2-(methylthio)pyrimidine], the “time at which the state of equilibrium of amplified oligomeric forms is reached” value ([2]; 5 μM) is reported as 11 days, the “time at which the state of equilibrium of amplified oligomeric forms is reached” value ([2]; 20 μM) is reported as 3 days and the “increase in the signal on the oligomeric forms compared with an untreated control” value ([2]; 20 μM, N2a58/22L cells, immunoblot after PK) is reported as “approximately 90 fold”. For the same compound, the “effect on the amount of PrP^Sc in the infected cells” value ([2]; infected cells, immunoblotting after proteinase K, FIGS. 1 and 2) was “notably increases the amount of PrP^Sc”, the “appearance of oligomeric forms of greater size than those observed over 3 days” value [2, 4] was “does not induce the appearance of oligomeric forms having a size greater” and the “depletion of monomeric form PrP^Sc27-30 to the benefit of oligomeric forms around 50-60 kDa” value [2, 4] was “No depletion”. For the same compound, the “oligomerization of PrP^C in the cells” value [3] was “does not increase the oligomerization of PrP^C”.

For `COc1ccc(S(=O)(=O)NNC(=O)c2ccc(Cn3cnc(Cl)c3Cl)o2)cc1` [N′-1-({5-[(4,5-dichloro-1H-imidazol-1-yl)methyl]-2-furyl}carbonyl)-4-methoxybenzene-1-sulfonohydrazide], the IC50 [1] is listed as about 15 µM.

In the case of `Nc1nccc(-c2ccc(-c3cccs3)s2)n1` [compound B, 4-(5-thienyl-2-thienyl)-2-(amino)-pyrimidine], the “amount of oligomeric forms observed compared with compound A” value ([2]; 14 days, 20 μM, FIG. 6) is reported as “much greater than for the compound A”, the “amount of oligomeric forms of PrP^Sc at 5 μM versus higher concentrations” value ([2]; N2a58/22L cells, 3 days, 5 to 20 μM) is reported as “identical to that observed for the concentration of 10 or 20 μM” and the “amplification capacity, comparative kinetics between compounds B and A” value ([2]; incubation period of 14 days) is reported as “greater amplification capacity”.
